Source: PMC8899577, “Targeting the anti-apoptotic Bcl-2 family proteins: machine learning virtual screening and biological evaluation of new small molecules” (Theranostics, 2022)

Experiments:
[1] = tested on: HCT116 colon cancer cells; assay: Cell viability by MTT, HCT116; format: cell-based, Human; settings: 20 µM for 72 h, vs control
Procedure: (§1) The effect of compounds on cell viability was performed by measuring 3-[4,5-dimethylthiazol-2-yl]-2,5-diphenyltetrazolium bromide inner salt (MTT, Sigma-Aldrich) dye absorbance (solid tumor cells) or by quantization of ATP present in metabolically active cells using CellTiter-Glo® Luminescent (Promega, Fitchburg, Wisconsin, USA) (hematologic cells) following manifacturer's protocol. To evaluate the cell colony-forming ability, cell suspension from different samples was seeded into 60-mm Petri dishes. After 10 days, colonies were stained with 2% methylene blue in 95% ethanol and counted (1 colony > 50 cells). The surviving fractions were calculated as the ratio of absolute survival of the treated sample/survival of DMSO-treated control sample.
(§2) Figure 4 Analysis of the effect of IS20 and IS21 on cell viability, clonogenic ability and tumor sphere formation in cancer cells. […] (B) Representative images and quantification of clonogenic ability evaluated in M14 and H1299 cells treated with IS20 or IS21 (20 μM for 72 h). […] (C) Quantification of tumor sphere formation of M14 and H1299 cells treated with IS20 or IS21 (20 μM for 72 h). […] (A-C) Data are reported as mean ± SD of three independent experiments. p-values were calculated between control (Ctrl) and treated cells, ** p < 0.001 and *** p < 0.0001.

H1299 cells = assay: Clonogenic assay, H1299; format: cell-based, Human; settings: 20 µM for 72 h, respect to controls
Procedure: as §1, §2

MDA-MB-231 cells = assay: Flow cytometry subG1 peak (PI staining), MDA-MB-231; format: cell-based, Human; settings: 20 µM for 72 h
Procedure: (§3) Flow cytometric analysis (BD Accuri™ C6, BD Biosciences) was performed to evaluate cell cycle distribution by propidium iodide (PI) staining, and cell viability by using the PI dye exclusion assay as previously reported.
(§4) Figure 5 Analysis of apoptosis induction by IS20 and IS21 in leukemia, melanoma and NSCLC cells. […] (A-F) Reported images are representative of two independent experiments with similar results. HSP72/73 or α-Tubulin are shown as loading and transferring control. (G) Flow cytometric quantification of cells in the subG1 peak of cell cycle distribution by propidium iodide staining in HL60 cell line treated with IS20 or IS21 (20 μM for 24 h) and in M14, H1299 and MDA-MB-231 cell lines treated with IS20 or IS21 (20 μM for 72 h). Data are reported as mean ± SD of three independent experiments. p-values were calculated between control (Ctrl) and treated cells, * p < 0.05. (H) Flow cytometric quantification of cells in the subG1 peak by propidium iodide staining in M14 and H1299 cell lines treated with IS20 or IS21 (20 μM, 72 h) in presence or absence of the pan caspase inhibitor z-VAD (50 μM). p-values were calculated between treated control (Ctrl) cells, # p < 0.01, ## p < 0.001 or between cells treated with IS20 or IS21 alone or in combination with z-VAD, * p < 0.05, ** p < 0.005. (G-H) Data are reported as mean of two (H) or three (G) experiments ± SD.

HL60 cells [2] = assay: Western blot of LC3B-I/LC3B-II (autophagy), HL60; format: cell-based, Human; settings: 20 µM for 24 h
M14 cells = assay: Western blot of PARP1 cleavage, M14; format: cell-based, Human; settings: 72 h
Procedure: (§5) Western blot analyses of total protein extracts were performed as previously described. Immunodetection was performed using antibodies directed to poly (ADP-ribose) polymerase (PARP; BD Biosciences San Diego, CA, USA), LC3B (Cell Signaling Technology, Danvers, MA), HSP72/73 (Calbiochem, EMD Biosciences, La Jolla, CA), Bcl-2 (SC-509, Santa Cruz Biotechnology Inc, Dallas, TX, USA), Bcl-xL (SC-271121, Santa Cruz Biotechnology Inc), Mcl-1 (SC-12756, Santa Cruz Biotechnology Inc) α-tubulin (Santa Cruz Biotechnology Inc) actin (Sigma-Aldrich, St. Louis, Missouri, USA). Anti-rabbit or anti-mouse immunoglobulin G-horseradish peroxidase-conjugated antibodies (Amersham Biosciences, Freiburg, Germany) were used as secondary antibody. Images were acquired by Image Lab Software (Bio-Rad, Hercules, CA, USA), using a ChemiDoc System instrument (Bio-Rad). The densitometric evaluation was performed using Image J software and normalized with relative controls.
as §4

Sbcl2 melanoma cells = assay: Cell viability by MTT, Sbcl2; format: cell-based; settings: Homo sapiens, 72 h
Procedure: as §1
Figure 1 Cytotoxic screening of putative inhibitors of Bcl-2 anti-apoptotic proteins. (A) Flow cytometric quantification of propidium iodide exclusion assay in HL60 cells treated with the 49 putative Bcl-2 family inhibitors (50 μM, 72 h). (B) Analysis of cell viability by CellTiterGlo assay in HL60 cells treated for 24 h with concentrations ranging from 5 to 50 μM of the indicated compounds. (C-D) Analysis of cell viability by MTT assay in (C) M14 and (D) Sbcl2 melanoma cell lines treated for 72 h with concentrations ranging from 5 to 50 μM of the indicated compounds. […]

HL60 cells [3] = assay: Flow cytometry subG1 peak (PI staining), HL60; format: cell-based, Human; settings: 20 µM for 24 h
Procedure: as §3, §4

normal human fibroblasts = assay: Viability of normal fibroblasts; format: cell-based; settings: data not shown
U937 cells = assay: Western blot of PARP1 cleavage, U937; format: cell-based, Human; settings: 20 µM for 24 h
Procedure: as §5, with “The densitometric evaluation was performed using Image J software and normalized with relative controls.” left out
Figure 5 Analysis of apoptosis induction by IS20 and IS21 in leukemia, melanoma and NSCLC cells. […] (G) Flow cytometric quantification of cells in the subG1 peak of cell cycle distribution by propidium iodide staining in HL60 cell line treated with IS20 or IS21 (20 μM for 24 h) and in M14, H1299 and MDA-MB-231 cell lines treated with IS20 or IS21 (20 μM for 72 h). Data are reported as mean ± SD of three independent experiments. p-values were calculated between control (Ctrl) and treated cells, * p < 0.05. […]

Row | Structure (SMILES) | cell viability HCT116 [1] | decrease of cell colony formation, H1299 (H1299 cells) | subG1 peak of cell cycle distribution, MDA-MB-231 (MDA-MB-231 cells) | ratio of LC3B-II on LC3B-I, HL60 (HL60 cells [2]) | PARP1 cleavage, M14 (M14 cells) | IC50 (Sbcl2 melanoma cells) | subG1 peak of cell cycle distribution, HL60 (HL60 cells [3]) | effect on normal human fibroblasts viability (normal human fibroblasts) | PARP1 cleavage, U937 (U937 cells)
1 | CCCCOc1ccc(C2/C(=C(\O)c3ccc4c(c3)CC(C)O4)C(=O)C(=O)N2c2nnc(SCc3ccc(Cl)cc3)s2)cc1OCC (stereo not drawn) [IS20] | not significantly perturbed | 80-90% | not evident | Increased ratio | cleavage of PARP1 | 21 µM | presence of subG1 peak | no significant effect | cleavage of PARP1
2 | CCCCCOc1ccc(C2/C(=C(\O)c3ccc4c(c3)CC(C)O4)C(=O)C(=O)N2c2nnc(SCc3ccc(Cl)cc3)s2)cc1OCC (stereo not drawn) [IS21] | not significantly perturbed | 80-90% | not evident | Increased ratio | cleavage of PARP1 | 19.8 µM | presence of subG1 peak | no significant effect | cleavage of PARP1
